How the values were obtained:
PTPRG V1038F = molecular target: T1, PTPRG V1038F (Homo sapiens, UniProt P23470, V1038F); test: Inhibitor sensitivity of point mutant PTPRG V1038F; assay type: biochemical; details: 10 µM, vs wild-type PTPRG
T1 construct: Point mutants of the PTPRZ1-ICR, PTPRG-ICR, and PTPN1 catalytic domain were generated; GST (N); made in house
From the text: (§1) Figure 5 Structural basis for PTPRZ inhibition of NAZ2329. (A) An enlarged view of the X-ray structure of human PTPRZ1-D1 complexed with NAZ2329 (PDB ID: 5H08) (left), X-ray structure of the apo (open) form of PTPRZ1-D1 (PDB ID: 5AWX, ref. [6], middle) and a computer-modeled structure of the closed form of PTPRZ1-D1 complexed with a competitive inhibitor, SCB4380 (ref. [6], right), are shown. PTPRZ1-D1 is shown as a gray surface representation, in which Cys1933 at the active site and Val-1911 at the bottom of the allosteric pocket are indicated in red and yellow, respectively. Inhibitors are colored according to the atomic species in a stick figure representation as follows: oxygen (red), nitrogen (blue), sulfur (yellow), and carbon (green). The bottom figures show the conformation of the WPD loop (orange) as cartoon representations, in which Asp1901 and Cys1933 are indicated by orange and red spheres, respectively. Side chains of Arg1939 at the active site, Met1902 in the WPD loop, and Val-1911 at the bottom of the allosteric binding area are also shown in the stick representation. (B) LigPlot representation of the NAZ2329 interaction with PTPRZ1-D1. The predicted hydrogen bonds (broken black lines) and residues (red spoked arcs) involved in the hydrophobic interaction are shown. […]

PTPN1 F191V = test: Inhibitor sensitivity of point mutant PTPN1 F191V; assay type: biochemical, human; details: at 10 µM
From the text: as §1

PTPRZ1 M1902F, M1902H = test: Inhibitor sensitivity of point mutants PTPRZ1 M1902F and M1902H; assay type: biochemical, human; details: 10 µM, vs wild-type PTPRZ1
From the text: as §1

T1 sequence (P23470 763-1445 V1038F limits assumed): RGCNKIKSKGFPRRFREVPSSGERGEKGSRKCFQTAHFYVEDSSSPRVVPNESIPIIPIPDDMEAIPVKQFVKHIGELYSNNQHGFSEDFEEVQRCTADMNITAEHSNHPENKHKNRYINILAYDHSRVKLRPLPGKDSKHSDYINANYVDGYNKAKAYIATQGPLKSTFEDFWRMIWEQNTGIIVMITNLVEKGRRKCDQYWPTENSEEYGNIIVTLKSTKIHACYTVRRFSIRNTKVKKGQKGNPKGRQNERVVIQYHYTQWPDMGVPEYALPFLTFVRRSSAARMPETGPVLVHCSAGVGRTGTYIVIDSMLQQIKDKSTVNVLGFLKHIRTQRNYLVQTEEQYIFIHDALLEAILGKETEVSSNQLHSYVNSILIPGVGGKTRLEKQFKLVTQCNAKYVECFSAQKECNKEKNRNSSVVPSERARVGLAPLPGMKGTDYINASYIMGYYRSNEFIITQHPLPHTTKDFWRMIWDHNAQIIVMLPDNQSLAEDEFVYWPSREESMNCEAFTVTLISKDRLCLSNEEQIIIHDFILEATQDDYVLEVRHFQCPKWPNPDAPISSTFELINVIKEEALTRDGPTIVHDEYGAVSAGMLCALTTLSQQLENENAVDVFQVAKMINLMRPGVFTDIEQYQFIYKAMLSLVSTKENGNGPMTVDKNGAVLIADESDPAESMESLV

For `CCOc1ccc(C(F)(F)F)cc1CSc1ccsc1C(=O)NS(=O)(=O)c1ccccc1` [NAZ2329], the “effect of V1038F mutation on sensitivity to inhibitor” value (PTPRG V1038F) was “resulted in resistance”, the “change in sensitivity of F191V mutant vs wild-type PTPN1 (more sensitive)” value (PTPN1 F191V) was ~ 2 fold and the “effect of M1902F / M1902H substitution on sensitivity to inhibitor” value (PTPRZ1 M1902F, M1902H) was “did not affect the sensitivity to the inhibitor”.
